Earlier results in patent US11498743B2, “Cardboard container for active packaging of fresh fruit and vegetables and production method of same” (Universidad Politecnica de Cartagena, priority 2016, dated 2022).

Compound	Half-life in 1M HCl at 60° C.
OC[C@H]1O[C@@H]2O[C@H]3[C@H](O)[C@@H](O)[C@@H](O[C@H]4[C@H](O)[C@@H](O)[C@@H](O[C@H]5[C@H](O)[C@@H](O)[C@@H](O[C@H]6[C@H](O)[C@@H](O)[C@@H](O[C@H]7[C@H](O)[C@@H](O)[C@@H](O[C@H]1[C@H](O)[C@H]2O)O[C@@H]7CO)O[C@@H]6CO)O[C@@H]5CO)O[C@@H]4CO)O[C@@H]3CO [α-CD, alpha-cyclodextrin]	6.2 h
OC[C@H]1O[C@@H]2O[C@H]3[C@H](O)[C@@H](O)[C@@H](O[C@H]4[C@H](O)[C@@H](O)[C@@H](O[C@H]5[C@H](O)[C@@H](O)[C@@H](O[C@H]6[C@H](O)[C@@H](O)[C@@H](O[C@H]7[C@H](O)[C@@H](O)[C@@H](O[C@H]8[C@H](O)[C@@H](O)[C@@H](O[C@H]9[C@H](O)[C@@H](O)[C@@H](O[C@H]1[C@H](O)[C@H]2O)O[C@@H]9CO)O[C@@H]8CO)O[C@@H]7CO)O[C@@H]6CO)O[C@@H]5CO)O[C@@H]4CO)O[C@@H]3CO [γ-CD, gamma-cyclodextrin]	3.0 h
OC[C@H]1O[C@@H]2O[C@H]3[C@H](O)[C@@H](O)[C@@H](O[C@H]4[C@H](O)[C@@H](O)[C@@H](O[C@H]5[C@H](O)[C@@H](O)[C@@H](O[C@H]6[C@H](O)[C@@H](O)[C@@H](O[C@H]7[C@H](O)[C@@H](O)[C@@H](O[C@H]8[C@H](O)[C@@H](O)[C@@H](O[C@H]1[C@H](O)[C@H]2O)O[C@@H]8CO)O[C@@H]7CO)O[C@@H]6CO)O[C@@H]5CO)O[C@@H]4CO)O[C@@H]3CO [β-CD, beta-cyclodextrin]	5.4 h
